Results taken from US20110039819A1, “SUBSTITUTED PHENOXYBENZAMIDES” (priority 2008, published 2011).
Read-outs that look alike come from different tables or passages of the source.

Molecular target: T1, MEK1 (Homo sapiens, UniProt Q02750)
T1 construct: purchased Millipore 14-420 (GST-MEK1); 14-703 (Cot1); host or cells: Cot1: insect cells (SF21)
Experiment: MEK1 activation kinase assay (Assay 2, HTRF; Cot1 phosphorylates GST-MEK1)
Type: biochemical
Method: MEK1 Activation Kinase Assay
The kinase Cot1 activates MEK1 by phosphorylating its activation loop. The inhibitory activity of compounds of the present invention on this activation of MEK1 was quantified employing the HTRF assay described in the following paragraphs.
As substrate for the kinase reaction the unactive C-terminally His6-tagged GST-MEK1 fusion protein (Millipore cat. no 14-420) was used.
Then the kinase reaction was started by the addition of 2 μl of a solution of Cot1 in assay buffer and the resulting mixture was incubated for a reaction time of 20 min at 22° C. The concentration of Cot1 in the assay was adjusted depending of the activity of the enzyme lot and was chosen appropriate to have the assay in the linear range, typical enzyme concentrations were in the range of about 2 ng/μl (final conc. in the 5 μl assay volume).
The resulting mixture was incubated 2 h at 22° C. to allow the binding of the phosphorylated GST-MEK1 to the anti-GST-XL665 and the Eu-cryptate labelled anti-phospho-MEK 1/2 antibody. Subsequently the amount of Ser217/Ser221-phosphorylated substrate was evaluated by measurement of the resonance energy transfer from the Eu-Cryptate-labelled anti-phospho-MEK antibody to the anti-GST-XL665.

[1] = mean values from 2 or more measurements, read-out: Assay 2 IC50 values (nanomolar) (MEK1 activation kinase assay) (values are mean values from 2 or more measurements)
[2] = representative example compounds, read-out: IC50 in MEK1 activation kinase assay

T1 sequence (Q02750 whole entry): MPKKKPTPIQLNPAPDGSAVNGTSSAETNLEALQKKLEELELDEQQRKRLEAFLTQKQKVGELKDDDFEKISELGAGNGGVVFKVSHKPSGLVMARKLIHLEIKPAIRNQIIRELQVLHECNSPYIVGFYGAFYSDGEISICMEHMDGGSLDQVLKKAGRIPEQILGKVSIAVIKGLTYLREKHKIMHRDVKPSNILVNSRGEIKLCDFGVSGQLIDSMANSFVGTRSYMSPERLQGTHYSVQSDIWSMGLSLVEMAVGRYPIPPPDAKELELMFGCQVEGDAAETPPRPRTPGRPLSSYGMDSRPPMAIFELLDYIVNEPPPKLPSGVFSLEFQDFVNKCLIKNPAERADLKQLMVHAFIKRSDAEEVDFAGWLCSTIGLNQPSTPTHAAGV

Row | Compound | IC50 [1] [nM] | IC50 [2] [nM]
1 | CC(O)(CO)CCOc1cc(F)cc(Nc2ccc(I)cc2F)c1C(N)=O (single isomer, unassigned) [Example 6.5, 2-(3,4-Dihydroxy-3-methyl-butoxy)-4-fluoro-6-(2-fluoro-4-iodo-phenylamino)-benzamide] | 172 | –
2 | CC(O)(CO)CCOc1cc(F)cc(Nc2ccc(I)cc2F)c1C(N)=O (single isomer, unassigned) [Example 6.6, 2-(3,4-Dihydroxy-3-methyl-butoxy)-4-fluoro-6-(2-fluoro-4-iodo-phenylamino)-benzamide] | 80.3 | –
3 | CN(C)S(=O)(=O)Nc1cccc(Oc2cc(F)cc(Nc3ccc(I)cc3F)c2C(N)=O)c1 [Example 2.1, 2-[3-[[(dimethylamino)sulfonyl]amino]phenoxy]-4-fluoro-6-[(2-fluoro-4-iodophenyl)amino]-benzamide] | 21.8 | –
4 | CN(C)S(=O)(=O)Nc1cccc(Oc2cc(F)cc(Nc3ccc(I)cc3)c2C(N)=O)c1 [Example 2.16, 2-{3-[(dimethylsulfamoyl)amino]phenoxy}-4-fluoro-6-[(4-iodophenyl)amino] benzamide] | 47.3 | < 1000
5 | Cc1cc(I)ccc1Nc1cc(F)cc(Oc2cccc(NS(=O)(=O)N(C)C)c2)c1C(N)=O [Example 2.17, 2-{3-[(dimethylsulfamoyl)amino]phenoxy}-4-fluoro-6-[(4-iodo-2-methylphenyl)amino] benzamide] | 39.8 | < 1000
6 | CC(C)(C)OC(=O)Nc1cccc(Oc2c(F)c(F)c(F)c(Nc3ccc(I)cc3F)c2C(N)=O)c1 [Example 2.19, {3-[2-Carbamoyl-4,5,6-trifluoro-3-(2-fluoro-4-iodo-phenylamino)-phenoxy]-phenyl}-carbamic acid tert-butyl ester] | 152 | < 1000
7 | CN(C)S(=O)(=O)Nc1cccc(Oc2c(F)c(F)c(F)c(Nc3ccc(I)cc3F)c2C(N)=O)c1 [Example 2.20, 2-{3-[(dimethylsulfamoyl)amino]phenoxy}-3,4,5-trifluoro-6-[(2-fluoro-4-iodophenyl)amino]-benzamide] | 16.5 | < 1000
8 | CC(=O)Nc1ccc(Oc2cc(F)cc(Nc3ccc(I)cc3F)c2C(N)=O)cc1 [Example 4.5, 2-(4-Acetylamino-phenoxy)-4-fluoro-6-(2-fluoro-4-iodo-phenylamino)-benzamide] | – | < 1000
9 | CNC(=O)c1c(Nc2ccc(I)cc2F)cc(F)cc1Oc1cccc(NS(=O)(=O)N(C)C)c1 [Example 4.17, 2-[3-[[(dimethylamino)sulfonyl]amino]phenoxy]--4-fluoro-6-[(2-fluoro-4-iodophenyl)amino]-N-methyl-benzamide] | 61.3 | –
10 | CN(C)S(=O)(=O)Nc1cccc(Oc2cc(F)cc(Nc3ccc(I)cc3F)c2C(=O)NCCO)c1 [Example 4.18, 2-[3-[[(dimethylamino)sulfonyl]amino]phenoxy]--4-fluoro-6-[(2-fluoro-4-iodophenyl)amino]-N-(2-hydroxy-ethyl)-benzamide] | 69.9 | –
11 | CN(C)S(=O)(=O)Nc1cccc(Oc2cc(F)cc(Nc3ccc(I)cc3F)c2C(=O)NCCCO)c1 [Example 4.19] | 80.1 | –
12 | C[C@H](CO)NC(=O)c1c(Nc2ccc(I)cc2F)cc(F)cc1Oc1cccc(NS(=O)(=O)N(C)C)c1 [Example 4.20, 2-[3-[[(dimethylamino)sulfonyl]amino]phenoxy]--4-fluoro-6-[(2-fluoro-4-iodophenyl)amino]-N-((R)-2-hydroxy-1-methyl-ethyl)-benzamide] | 89.3 | –
13 | C[C@@H](CO)NC(=O)c1c(Nc2ccc(I)cc2F)cc(F)cc1Oc1cccc(NS(=O)(=O)N(C)C)c1 [Example 4.21, 2-[3-[[(dimethylamino)sulfonyl]amino]phenoxy]--4-fluoro-6-[(2-fluoro-4-iodophenyl)amino]-N-((S)-2-hydroxy-1-methyl-ethyl)-benzamide] | 248 | –
14 | C[C@@H](O)CNC(=O)c1c(Nc2ccc(I)cc2F)cc(F)cc1Oc1cccc(NS(=O)(=O)N(C)C)c1 [Example 4.22, 2-[3-[[(dimethylamino)sulfonyl]amino]phenoxy]--4-fluoro-6-[(2-fluoro-4-iodophenyl)amino]-N-((R)-2-hydroxy-propyl)-benzamide] | 163 | –
15 | C[C@H](O)CNC(=O)c1c(Nc2ccc(I)cc2F)cc(F)cc1Oc1cccc(NS(=O)(=O)N(C)C)c1 [Example 4.23, 2-[3-[[(dimethylamino)sulfonyl]amino]phenoxy]--4-fluoro-6-[(2-fluoro-4-iodophenyl)amino]-N-((S)-2-hydroxy-propyl)-benzamide] | 132 | –
16 | CN1CCC[C@H]1COc1cc(F)cc(Nc2ccc(I)cc2F)c1C(N)=O [Example 4.25, 4-Fluoro-2-(2-fluoro-4-iodo-phenylamino)-6-((S)-1-methyl-pyrrolidin-2-ylmethoxy)-benzamide] | 182 | < 1000
17 | Cn1cc(Oc2cc(F)cc(Nc3ccc(I)cc3F)c2C(N)=O)cn1 [Example 4.27, 4-Fluoro-2-(2-fluoro-4-iodo-phenylamino)-6-(1-methyl-1H-pyrazol-4-yloxy)-benzamide] | 258 | < 1000
18 | NC(=O)c1c(Nc2ccc(I)cc2F)cc(F)cc1Oc1cccc(CS(N)(=O)=O)c1 [Example 4.33, 4-Fluoro-2-(2-fluoro-4-iodo-phenylamino)-6-(3-sulfamoylmethyl-phenoxy)-benzamide] | 31.5 | < 1000
19 | CS(=O)(=O)Cc1cccc(Oc2cc(F)cc(Nc3ccc(I)cc3F)c2C(N)=O)c1 [Example 4.34, 4-Fluoro-2-(2-fluoro-4-iodo-phenylamino)-6-(3-methane-sulfonylmethyl-phenoxy)-benzamide] | 23.5 | < 1000
20 | NC(=O)c1cccc(Oc2cc(F)cc(Nc3ccc(I)cc3F)c2C(N)=O)c1 [Example 4.37, 2-(3-Carbamoyl-phenoxy)-4-fluoro-6-(2-fluoro-4-iodo-phenylamino)-benzamide] | 26.6 | < 1000

The next lines start with the values.

Row | IC50 [1] [nM] | IC50 [2] [nM] | Compound
21 | 30.6 | – | CC(C)(O)C(O)CCOc1cc(F)cc(Nc2ccc(I)cc2F)c1C(N)=O (single isomer, unassigned) [Example 6.3, 2-(3,4-Dihydroxy-4-methyl-pentyloxy)-4-fluoro-6-(2-fluoro-4-iodo-phenylamino)-benzamide]
22 | 29.5 | – | CC(C)(O)C(O)CCOc1cc(F)cc(Nc2ccc(I)cc2F)c1C(N)=O (single isomer, unassigned) [Example 6.4, 2-(3,4-Dihydroxy-4-methyl-pentyloxy)-4-fluoro-6-(2-fluoro-4-iodo-phenylamino)-benzamide]
23 | 24 | – | CCCNS(=O)(=O)Nc1cccc(Oc2cc(F)cc(Nc3ccc(I)cc3F)c2C(N)=O)c1 [Example 5.2, 2-[3-[[(propylamino)sulfonyl]amino]phenoxy]-4-fluoro-6-[(2-fluoro-4-iodophenyl)amino]-benzamide]
24 | 28.1 | < 1000 | CC(=O)Nc1cccc(Oc2cc(F)cc(Nc3ccc(I)cc3F)c2C(N)=O)c1 [Example 5.3, 2-(3-Acetylamino-phenoxy)-4-fluoro-6-(2-fluoro-4-iodo-phenylamino)-benzamide]
25 | 18.5 | – | NC(=O)c1c(Nc2ccc(I)cc2F)cc(F)cc1Oc1cccc(NS(N)(=O)=O)c1 [Example 5.7, 2-[3-[[(amino)sulfonyl]amino]phenoxy]-4-fluoro-6-[(2-fluoro-4-iodophenyl)amino]-benzamide]
26 | 25.9 | < 1000 | NC(=O)c1c(Nc2ccc(I)cc2F)cc(F)cc1Oc1cccc(NS(=O)(=O)N2CCOCC2)c1 [Example 5.24, 4-Fluoro-2-(2-fluoro-4-iodo-phenylamino)-6-[3-(morpholine-4-sulfonylamino)-phenoxy]-benzamide]
27 | 138 | – | CN(C)C(=O)N1CCN(CCOc2cc(F)cc(Nc3ccc(I)cc3F)c2C(N)=O)CC1 [Example 5.30, 4-{2-[2-Carbamoyl-5-fluoro-3-(2-fluoro-4-iodo-phenylamino)-phenoxy]-ethyl}-piperazine-1-carboxylic acid dimethylamide]
28 | 153 | – | CS(=O)(=O)N1CCN(CCOc2cc(F)cc(Nc3ccc(I)cc3F)c2C(N)=O)CC1 [Example 5.31, 4-Fluoro-2-(2-fluoro-4-iodo-phenylamino)-6-[2-(4-methanesulfonyl-piperazin-1-yl)-ethoxy]-benzamide]
29 | 35.4 | – | CS(=O)(=O)N1CCC[C@@H]1COc1cc(F)cc(Nc2ccc(I)cc2F)c1C(N)=O [Example 5.32, 4-Fluoro-2-(2-fluoro-4-iodo-phenylamino)-6-((R)-1-methanesulfonyl-pyrrolidin-2-ylmethoxy)-benzamide]
30 | 91.6 | – | CCS(=O)(=O)N1CCC[C@@H]1COc1cc(F)cc(Nc2ccc(I)cc2F)c1C(N)=O [Example 5.33, 2-((R)-1-Ethanesulfonyl-pyrrolidin-2-ylmethoxy)-4-fluoro-6-(2-fluoro-4-iodo-phenylamino)-benzamide]
31 | 96.5 | – | CCS(=O)(=O)N1CCC[C@H]1COc1cc(F)cc(Nc2ccc(I)cc2F)c1C(N)=O [Example 5.34, 2-((S)-1-Ethanesulfonyl-pyrrolidin-2-ylmethoxy)-4-fluoro-6-(2-fluoro-4-iodo-phenylamino)-benzamide]
32 | 14.5 | – | NC(=O)c1c(Nc2ccc(I)cc2F)cc(F)cc1Oc1cccc(NS(=O)(=O)C2CC2)c1 [Example 5.36, 2-(3- Cyclopropanesulfonylamino-phenoxy)-4-fluoro-6-(2-fluoro-4-iodo-phenylamino)-benzamide]
